target: T1, Human Recombinant Matriptase 2 (Homo sapiens, UniProt Q8IU80); assay: Matriptase 2 inhibition, fluorescence based assay (Method I); format: biochemical; settings: Table A; Ki of Matriptase-2 given as class symbols; read-out: Mat-2 Ki
T1 construct: made in house
T1 sequence (Q8IU80 1-811): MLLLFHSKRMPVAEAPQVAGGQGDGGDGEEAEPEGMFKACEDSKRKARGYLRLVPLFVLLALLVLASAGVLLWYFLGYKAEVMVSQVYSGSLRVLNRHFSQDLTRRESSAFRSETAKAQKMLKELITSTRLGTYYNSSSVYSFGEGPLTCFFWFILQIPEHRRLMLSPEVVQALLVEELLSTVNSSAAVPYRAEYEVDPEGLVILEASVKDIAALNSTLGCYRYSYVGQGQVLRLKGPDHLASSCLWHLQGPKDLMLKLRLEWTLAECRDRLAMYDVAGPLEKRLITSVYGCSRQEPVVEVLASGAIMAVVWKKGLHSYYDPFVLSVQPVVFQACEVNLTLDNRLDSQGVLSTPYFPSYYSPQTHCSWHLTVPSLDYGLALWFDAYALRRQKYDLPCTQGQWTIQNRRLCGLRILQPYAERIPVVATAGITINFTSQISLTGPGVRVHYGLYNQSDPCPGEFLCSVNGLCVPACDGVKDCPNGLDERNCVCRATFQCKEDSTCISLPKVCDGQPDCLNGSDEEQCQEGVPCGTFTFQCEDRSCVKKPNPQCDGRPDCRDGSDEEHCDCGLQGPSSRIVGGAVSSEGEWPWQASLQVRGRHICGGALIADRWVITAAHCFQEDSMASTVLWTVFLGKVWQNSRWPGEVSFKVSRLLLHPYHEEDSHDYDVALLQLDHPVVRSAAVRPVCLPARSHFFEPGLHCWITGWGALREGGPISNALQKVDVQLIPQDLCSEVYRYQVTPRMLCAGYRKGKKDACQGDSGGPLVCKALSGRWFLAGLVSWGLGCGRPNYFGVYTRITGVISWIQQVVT
Procedure, shortened: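 In-house recombinant enzyme (3.5 nM), preincubated 30 min with compound, then Boc-Gln-Ala-Arg-AMC substrate (62 μM) in 50 mM Tris pH 7.5, 150 mM NaCl, 0.01% gelatin, 1% DMSO, 25 °C. Fluorescence (Ex 360/Em 480 nm) read 60 min after substrate; IC50 from variable-slope sigmoidal fit of % inhibition.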

`CS(=O)(=O)N1CCC(CNC(=O)Nc2cc(Cn3c(C(=O)O)cc4ccc(CN)nc43)c3ccccc3c2)CC1` [Compound 293, 6-(aminomethyl)-1-{[3-({[(1-methanesulfonyl-piperidin-4-yl)methyl]-carbamoyl}amino)naph-thalen-1-yl]methyl}-1H-pyrrolo[2,3-b]pyridine-2-carboxylic acid] and `CC(C)(C)S(=O)(=O)N1CCC(CNC(=O)Nc2cc(Cn3c(C(=O)O)cc4ccc(CN)nc43)c3ccccc3c2)CC1` [Compound 294, 6-(aminomethyl)-1-({3-[({[1-(2-methylpropane-2-sulfonyl)piperidin-4-yl]methyl}carbamoyl)-amino]naphthalen-1-yl}-methyl)-1H-pyrrolo[2,3-b]pyridine-2-carboxylic acid] fall in the same range of Ki: 100 to 500 nM for the first, 100 to 500 nM for the second.

`C[C@@H]1CN(C(=O)Nc2cc(Cn3c(C(=O)O)cc4ccc(CN)nc43)c3ccccc3c2)CCN1` [Compound 295, 6-(aminomethyl)-1-[(3-{[(3R)-3-methylpipera-zine-1-carbonyl]amino}-naphthalen-1-yl)methyl]-1H-pyrrolo[2,3-b]pyr-idine-2-carboxylic acid] and `C[C@H]1CN(C(=O)Nc2cc(Cn3c(C(=O)O)cc4ccc(CN)nc43)c3ccccc3c2)CCN1` [Compound 305] fall in the same range of Ki: 500 to 3000 nM for the first, 500 to 3000 nM for the second.

`CC1(C)CCN(C(=O)Nc2cc(Cn3c(C(=O)O)cc4ccc(CN)nc43)c3ccccc3c2)CC1` [Compound 296, 6-(aminomethyl)-1-({3-[(4,4-dimethylpiperidine-1-carbonyl)amino]naph-thalen-1-yl}methyl)-1H-pyrrolo[2,3-b]pyridine-2-carboxylic acid] and `CC1(O)CCN(C(=O)Nc2cc(Cn3c(C(=O)O)cc4ccc(CN)nc43)c3ccccc3c2)CC1` [Compound 300] fall in the same range of Ki: 500 to 3000 nM for the first, 500 to 3000 nM for the second.

`NCc1ccc2cc(C(=O)O)n(Cc3cc(NC(=O)N4CC5CCCC5C4)cc4ccccc34)c2n1` (centres unmarked) [Compound 297, 6-(aminomethyl)-1-{[3-({octahydrocyclopenta-[c]pyrrole-2-carbonyl}-amino)naphthalen-1-yl]-methyl}-1H-pyrrolo[2,3-b]pyridine-2-carboxylic acid] and `NCc1ccc2cc(C(=O)O)n(Cc3cc(NC(=O)N4CC5CC(C5)C4)cc4ccccc34)c2n1` [Compound 308, 6-(aminomethyl)-1-{[3-({3-azabicyclo[3.1.1]-heptane-3-carbonyl}-amino)naphthalen-1-yl]-methyl}-1H-pyrrolo[2,3-b]pyridine-2-carboxylic acid] fall in the same range of Ki: 500 to 3000 nM for the first, 500 to 3000 nM for the second.

`NCc1ccc2cc(C(=O)O)n(Cc3cc(NC(=O)N4CCC(C(F)(F)F)CC4)cc4ccccc34)c2n1` [Compound 298, 6-(aminomethyl)-1-[(3-{[4-(trifluoromethyl)-piperidine-1-carbonyl]-amino}naphthalen-1-yl)-methyl]-1H-pyrrolo[2,3-b]pyridine-2-carboxylic acid] and `C[C@@H]1C[C@H](C)CN(C(=O)Nc2cc(Cn3c(C(=O)O)cc4ccc(CN)nc43)c3ccccc3c2)C1` [Compound 301, 6-(aminomethyl)-1-[(3-{[(3R,5S)-3,5-dimeth-ylpiperidine-1-carbonyl]-amino}naphthalen-1-yl)-methyl]-1H-pyrrolo[2,3-b]pyridine-2-carboxylic acid] fall in the same range of Ki: 500 to 3000 nM for the first, 500 to 3000 nM for the second.

`CC(C)[C@H]1CCCN1C(=O)Nc1cc(Cn2c(C(=O)O)cc3ccc(CN)nc32)c2ccccc2c1` [Compound 299, 6-(aminomethyl)-1-[(3-{[(2R)-2-(propan-2-yl)-pyrrolidine-1-carbonyl]-amino}naphthalen-1-yl)-methyl]-1H-pyrrolo[2,3-b]pyridine-2-carboxylic acid] and `COC[C@H]1CCCN1C(=O)Nc1cc(Cn2c(C(=O)O)cc3ccc(CN)nc32)c2ccccc2c1` [Compound 307] fall in the same range of Ki: 500 to 3000 nM for the first, 500 to 3000 nM for the second.

`C[C@@H]1CN(C(=O)Nc2cc(Cn3c(C(=O)O)cc4ccc(CN)nc43)c3ccccc3c2)C[C@H](C)N1` [Compound 304, 6-(aminomethyl)-1-[(3-{[(3R,5S)-3,5-dimeth-ylpiperazine-1-carbon-yl]amino}naphthalen-1-yl)methyl]-1H-pyrrolo-[2,3-b]pyridine-2-car-boxylic acid] and `CN(C)C(=O)N1CC[C@H](OC(=O)Nc2cc(Cn3c(C(=O)O)cc4ccc(CN)nc43)c3ccccc3c2)C1` [Compound 341] fall in the same range of Ki: 500 to 3000 nM for the first, 500 to 3000 nM for the second.

`CN1CCC[C@H]1COC(=O)Nc1cc(Cn2c(C(=O)O)cc3ccc(CN)nc32)c2ccccc2c1` [Compound 334, 6-(aminomethyl)-1-({3-[({[(2S)-1-methylpyr-rolidin-2-yl]methoxy}-carbonyl)amino]naph-thalen-1-yl}methyl)-1H-pyrrolo[2,3-b]pyr-idine-2-carboxylic acid] and `CN1CCC[C@@H]1COC(=O)Nc1cc(Cn2c(C(=O)O)cc3ccc(CN)nc32)c2ccccc2c1` [Compound 336, 6-(aminomethyl)-1-({3-[({[(2R)-1-methylpyr-rolidin-2-yl]methoxy}-carbonyl)amino]naph-thalen-1-yl}methyl)-1H-pyrrolo[2,3-b]pyr-idine-2-carboxylic acid] fall in the same range of Ki: 100 to 500 nM for the first, 100 to 500 nM for the second.

First: CC(C)N(CCOC(=O)Nc1cc(Cn2c(C(=O)O)cc3ccc(CN)nc32)c2ccccc2c1)C(C)C [Compound 338, 6-(aminomethyl)-1-({3-[({2-[bis(propan-2-yl)-amino]ethoxy}carbonyl)-amino]naphthalen-1-yl}-methyl)-1H-pyrrolo[2,3-b]pyridine-2-carboxylic acid]
Second: COCCN1CCN(C(=O)Nc2cc(Cn3c(C(N)=O)cc4ccc(CN)nc43)c3ccccc3c2)CC1 [Compound 344, 6-(aminomethyl)-1-((3-(4-(2-methoxyethyl)piperazine-1-carboxamido)naphthalen-1-yl)methyl)-1H-pyrrolo[2,3-b]pyridine-2-carboxamide]
The Ki of the first is higher: 500 to 3000 nM for the first, 100 to 500 nM for the second. The second binds more tightly here.

`CN1CCC(c2nnc(-c3cc4ccc(CN)nc4n3Cc3cc(NS(=O)(=O)Cc4ccccc4)cc4ccccc34)o2)CC1` [Compound 345, N-(4-((6-(aminomethyl)-2-(5-(1-methylpiperidin-4-yl)-1,3,4-oxadiazol-2-yl)-1H-pyrrolo[2,3-b]pyridin-1-yl)methyl)naphthalen-2-yl)-1-phenylmethanesulfonamide] and `CN1CCC(Cc2nnc(-c3cc4ccc(CN)nc4n3Cc3cc(NS(=O)(=O)Cc4ccccc4)cc4ccccc34)o2)CC1` [Compound 346, N-(4-{[6-(aminomethyl)-2-{5-[(1-methylpiperidin-4-yl)methyl]-1,3,4-oxa-diazol-2-yl}-1H-pyrrolo-[2,3-b]pyridin-1-yl]meth-yl}naphthalen-2-yl)-1-phenylmethanesulfon-amide] cannot be ordered by Ki: at most 100 nM for the first, 100 to 500 nM for the second.

`CN(C)Cc1nnc(-c2cc3ccc(CN)nc3n2Cc2cc(NS(=O)(=O)Cc3ccccc3)cc3ccccc23)o1` [Compound 347, N-(4-{[6-(aminomethyl)-2-{5-[(dimethylamino)-methyl]-1,3,4-oxadiazol-2-yl}-1H-pyrrolo[2,3-b]pyridin-1-yl]methyl}-naphthalen-2-yl)-1-phen-ylmethanesulfonamide] and `NCc1ccc2cc(-c3nnc(N)o3)n(Cc3cc(NS(=O)(=O)Cc4ccccc4)cc4ccccc34)c2n1` [Compound 348, N-(4-{[2-(5-amino-1,3,4-oxadiazol-2-yl)-6-(amino-methyl)-1H-pyrrolo[2,3-b]pyridin-1-yl]methyl}-naphthalen-2-yl)-1-phen-ylmethanesulfonamide] cannot be ordered by Ki: 100 to 500 nM for the first, at most 100 nM for the second.

In the case of `CN(C)CC(=O)Nc1nnc(-c2cc3ccc(CN)nc3n2Cc2cc(NS(=O)(=O)Cc3ccccc3)cc3ccccc23)o1` [Compound 349], the Ki is reported as at most 100 nM.

From patent publication US20240400553A1, “AMINE BASED MATRIPTASE 2 INHIBITORS AND USES THEREOF” (Disc Medicine, Inc., priority 2023, published 2024)
